According to ChEMBL document CHEMBL1201862, “PubChem BioAssay data set” (2004):
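Growth conditions: 96-well plates. Treatment: test compound, 48 hours, 5 concentrations. Analysis: linear interpolation between bracketing concentrations; unreached endpoints set to highest concentration. GI50: concentration for 50% inhibition of growth.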 Calls of active or inactive are those of the source. Rule as the data show it: active = GI50 up to about 1.1 µM and inactive = higher.

Legend:
Test in all cases: NCI tumour cell line growth inhibition, 48 h
LXFL 529 = system: LXFL 529
UACC-257 = system: UACC-257
ACHN = system: ACHN
SK-MEL-2 = system: SK-MEL-2
Malme-3M = system: Malme-3M
NCI-H23 = system: NCI-H23
HT-29 = system: HT-29
SK-OV-3 = system: SK-OV-3
HCT-116 = system: HCT-116
SF-295 = system: SF-295
UO-31 = system: UO-31
EKVX = system: EKVX
SNB-78 = system: SNB-78
SF-539 = system: SF-539
KM-20L2 = system: KM-20L2
SN12C = system: SN12C
MOLT-4 = system: MOLT-4
SF-268 = system: SF-268
UACC-62 = system: UACC-62
KM12 = system: KM12
SK-MEL-5 = system: SK-MEL-5
CAKI-1 = system: CAKI-1
A498 = system: A498
DMS-273 = system: DMS-273
TK-10 = system: TK-10
OVCAR-8 = system: OVCAR-8
OVCAR-3 = system: OVCAR-3
HL-60 = system: HL-60
RPMI-8226 = system: RPMI-8226
SW-620 = system: SW-620
OVCAR-5 = system: OVCAR-5
U-251 = system: U-251
NCI-H522 = system: NCI-H522
M14 = system: M14
786-0 = system: 786-0
COLO 205 = system: COLO 205
SK-MEL-28 = system: SK-MEL-28
HOP-62 = system: HOP-62
NCI-H460 = system: NCI-H460
CCRF-CEM = system: CCRF-CEM
OVCAR-4 = system: OVCAR-4
SNB-75 = system: SNB-75
IGROV-1 = system: IGROV-1
SNB-19 = system: SNB-19
DLD-1 = system: DLD-1
XF498 = system: XF498
HCT-15 = system: HCT-15
NCI-H226 = system: NCI-H226
RXF 393 = system: RXF 393
A549 = system: A549
LOX IMVI = system: LOX IMVI
HCC 2998 = system: HCC 2998
HOP-92 = system: HOP-92
M19-MEL = system: M19-MEL
K562 = system: K562
MCF7 = system: MCF7
MDA-MB-231 = system: MDA-MB-231
PC-3 = system: PC-3
MDA-N = system: MDA-N
Hs-578T = system: Hs-578T
DU-145 = system: DU-145
T47D = system: T47D
MDA-MB-435 = system: MDA-MB-435
SR = system: SR
BT-549 = system: BT-549
HOP-18 = system: HOP-18
NCI/ADR-RES = system: NCI/ADR-RES
DMS-114 = system: DMS-114

COC1=CCC=C(C[C@@H]2NCCc3cc(OC)c(OC)cc32)C1
GI50 (LXFL 529): > 100 µM (inactive)
GI50 (UACC-257): > 100 µM (inactive)
GI50 (ACHN): > 100 µM (inactive)
GI50 (SK-MEL-2): > 100 µM (inactive)
GI50 (Malme-3M): > 100 µM (inactive)
GI50 (NCI-H23): > 100 µM (inactive)
GI50 (HT-29): > 100 µM (inactive)
GI50 (SK-OV-3): > 100 µM (inactive)
GI50 (HCT-116): > 100 µM (inactive)
GI50 (SF-295): > 100 µM (inactive)
GI50 (UO-31): > 100 µM (inactive)
GI50 (EKVX): > 100 µM (inactive)
GI50 (SNB-78): > 100 µM (inactive)
GI50 (SF-539): > 100 µM (inactive)
GI50 (KM-20L2): > 100 µM (inactive)
GI50 (SN12C): > 100 µM (inactive)
GI50 (MOLT-4): > 100 µM (inactive)
GI50 (SF-268): > 100 µM (inactive)
GI50 (UACC-62): > 100 µM (inactive)
GI50 (KM12): > 100 µM (inactive)
GI50 (SK-MEL-5): > 100 µM (inactive)
GI50 (CAKI-1): > 100 µM (inactive)
GI50 (A498): > 100 µM (inactive)
GI50 (DMS-273): > 100 µM (inactive)
GI50 (TK-10): > 100 µM (inactive)
GI50 (OVCAR-8): > 100 µM (inactive)
GI50 (OVCAR-3): > 100 µM (inactive)
GI50 (HL-60): > 100 µM (inactive)
GI50 (RPMI-8226): > 100 µM (inactive)
GI50 (SW-620): > 100 µM (inactive)
GI50 (OVCAR-5): > 100 µM (inactive)
GI50 (U-251): > 100 µM (inactive)
GI50 (NCI-H522): > 100 µM (inactive)
GI50 (M14): > 100 µM (inactive)
GI50 (786-0): > 100 µM (inactive)
GI50 (COLO 205): > 100 µM (inactive)
GI50 (SK-MEL-28): > 100 µM (inactive)
GI50 (HOP-62): > 100 µM (inactive)
GI50 (NCI-H460): > 100 µM (inactive)
GI50 (CCRF-CEM): > 100 µM (inactive)
GI50 (OVCAR-4): > 100 µM (inactive)
GI50 (SNB-75): > 100 µM (inactive)
GI50 (IGROV-1): > 100 µM (inactive)
GI50 (SNB-19): > 100 µM (inactive)
GI50 (DLD-1): > 100 µM (inactive)
GI50 (XF498): > 100 µM (inactive)
GI50 (HCT-15): > 100 µM
GI50 (NCI-H226): 32.1 µM (inactive)
GI50 (RXF 393): > 100 µM (inactive)
GI50 (A549): > 100 µM (inactive)
GI50 (LOX IMVI): > 100 µM (inactive)
GI50 (HCC 2998): > 100 µM (inactive)
GI50 (HOP-92): 41.5 µM (inactive)
GI50 (M19-MEL): > 100 µM (inactive)
GI50 (K562): > 100 µM (inactive)

COc1cccc2c1C(=O)c1c(O)c3c(c(O)c1C2=O)C[C@@](O)(C(C)=O)C[C@@H]3OC1CC(N(Cc2ccccc2)Cc2ccccc2)C(O)C(C)O1 (stereo partly specified)
GI50 (MCF7): 12.4 µM (inactive)
GI50 (LXFL 529): 0.69 µM (active)
GI50 (MDA-MB-231): 10.9 µM (inactive)
GI50 (PC-3): 6.61 µM (inactive)
GI50 (MDA-N): 11.4 µM (inactive)
GI50 (UACC-257): 26.4 µM (inactive)
GI50 (ACHN): 0.51 µM (active)
GI50 (SK-MEL-2): 16.8 µM (inactive)
GI50 (Hs-578T): 16.9 µM (inactive)
GI50 (DU-145): 14.1 µM (inactive)
GI50 (Malme-3M): 13.3 µM (inactive)
GI50 (NCI-H23): 18.6 µM (inactive)
GI50 (HT-29): 0.474 µM (active)
GI50 (SK-OV-3): 34 µM (inactive)
GI50 (HCT-116): 1.84 µM (inactive)
GI50 (SF-295): 13.6 µM (inactive)
GI50 (UO-31): 15 µM (inactive)
GI50 (EKVX): 39.4 µM (inactive)
GI50 (SNB-78): 2.56 µM (inactive)
GI50 (SF-539): 10.9 µM (inactive)
GI50 (KM-20L2): 24.9 µM (inactive)
GI50 (SN12C): 8.09 µM (inactive)
GI50 (T47D): 11.9 µM (inactive)
GI50 (SF-268): 14.2 µM (inactive)
GI50 (UACC-62): 16.6 µM (inactive)
GI50 (KM12): 13.1 µM (inactive)
GI50 (SK-MEL-5): 14.6 µM (inactive)
GI50 (MDA-MB-435): 4.53 µM (inactive)
GI50 (CAKI-1): 6.03 µM (inactive)
GI50 (A498): 28.5 µM (inactive)
GI50 (DMS-273): 3.78 µM (inactive)
GI50 (SR): 0.101 µM (active)
GI50 (TK-10): 13.7 µM (inactive)
GI50 (OVCAR-8): 4.89 µM (inactive)
GI50 (OVCAR-3): 22.8 µM (inactive)
GI50 (HL-60): 9.55 µM (inactive)
GI50 (BT-549): > 27.5 µM (inactive)
GI50 (RPMI-8226): 4.62 µM (inactive)
GI50 (SW-620): 4.69 µM (inactive)
GI50 (OVCAR-5): 20.5 µM (inactive)
GI50 (U-251): 13.4 µM (inactive)
GI50 (NCI-H522): 10.4 µM (inactive)
GI50 (M14): 2.27 µM (inactive)
GI50 (786-0): 0.713 µM (active)
GI50 (COLO 205): 14.6 µM (inactive)
GI50 (SK-MEL-28): 32.8 µM (inactive)
GI50 (HOP-62): 18.8 µM (inactive)
GI50 (NCI-H460): 0.653 µM (active)
GI50 (CCRF-CEM): 2.43 µM (inactive)
GI50 (OVCAR-4): 15.1 µM (inactive)
GI50 (SNB-75): 30.1 µM (inactive)
GI50 (IGROV-1): 9.55 µM (inactive)
GI50 (HOP-18): > 45.5 µM (inactive)
GI50 (SNB-19): 21.7 µM (inactive)
GI50 (DLD-1): 10.1 µM (inactive)
GI50 (NCI/ADR-RES): 10.3 µM (inactive)
GI50 (HCT-15): 4.95 µM
GI50 (NCI-H226): 13.1 µM (inactive)
GI50 (RXF 393): 30.6 µM (inactive)
GI50 (DMS-114): 39.8 µM (inactive)
GI50 (A549): 4.55 µM (inactive)
GI50 (LOX IMVI): 5 µM (inactive)
GI50 (HCC 2998): 29.4 µM (inactive)
GI50 (HOP-92): 17.8 µM (inactive)
GI50 (M19-MEL): 23.2 µM (inactive)
GI50 (K562): 3.64 µM (inactive)

COc1ccc(OC)c2c3c(ccc12)C(c1ccccc1)OC3=O (stereo unspecified)
GI50 (LXFL 529): 43.8 µM (inactive)
GI50 (UACC-257): 37.7 µM (inactive)
GI50 (ACHN): 55.7 µM (inactive)
GI50 (SK-MEL-2): 55 µM (inactive)
GI50 (Malme-3M): 59 µM (inactive)
GI50 (NCI-H23): 17.7 µM (inactive)
GI50 (HT-29): 58.3 µM (inactive)
GI50 (SK-OV-3): > 100 µM (inactive)
GI50 (HCT-116): 72.9 µM (inactive)
GI50 (SF-295): 52.6 µM (inactive)
GI50 (UO-31): 36.8 µM (inactive)
GI50 (EKVX): > 100 µM (inactive)
GI50 (SNB-78): 12.8 µM (inactive)
GI50 (KM-20L2): > 100 µM (inactive)
GI50 (SN12C): 94.2 µM (inactive)
GI50 (MOLT-4): 32.9 µM (inactive)
GI50 (SF-268): > 100 µM (inactive)
GI50 (UACC-62): > 100 µM (inactive)
GI50 (KM12): 56.5 µM (inactive)
GI50 (SK-MEL-5): 47.5 µM (inactive)
GI50 (CAKI-1): 55.1 µM (inactive)
GI50 (A498): 81.7 µM (inactive)
GI50 (DMS-273): 31.9 µM (inactive)
GI50 (SR): 45 µM (inactive)
GI50 (TK-10): 60.4 µM (inactive)
GI50 (OVCAR-8): 39.4 µM (inactive)
GI50 (OVCAR-3): 25.8 µM (inactive)
GI50 (HL-60): 33.7 µM (inactive)
GI50 (RPMI-8226): 24.9 µM (inactive)
GI50 (SW-620): 85.1 µM (inactive)
GI50 (OVCAR-5): > 100 µM (inactive)
GI50 (U-251): 60.3 µM (inactive)
GI50 (NCI-H522): 36.5 µM (inactive)
GI50 (M14): > 100 µM (inactive)
GI50 (786-0): 60.7 µM (inactive)
GI50 (COLO 205): 54 µM (inactive)
GI50 (SK-MEL-28): 52.4 µM (inactive)
GI50 (HOP-62): 73.5 µM (inactive)
GI50 (NCI-H460): 47.2 µM (inactive)
GI50 (CCRF-CEM): 64 µM (inactive)
GI50 (OVCAR-4): 70.1 µM (inactive)
GI50 (SNB-75): 38.7 µM (inactive)
GI50 (IGROV-1): > 100 µM (inactive)
GI50 (HOP-18): 52.1 µM (inactive)
GI50 (SNB-19): > 100 µM (inactive)
GI50 (DLD-1): 63.5 µM (inactive)
GI50 (HCT-15): 61 µM
GI50 (NCI-H226): > 100 µM (inactive)
GI50 (RXF 393): 39.9 µM (inactive)
GI50 (DMS-114): 51.8 µM (inactive)
GI50 (A549): 85.5 µM (inactive)
GI50 (LOX IMVI): 56.5 µM (inactive)
GI50 (HCC 2998): > 100 µM (inactive)
GI50 (M19-MEL): 45.7 µM (inactive)
GI50 (K562): 47.2 µM (inactive)
